Laboratory results published in ChEMBL document CHEMBL4622846, “Synthesis and cytotoxic effects of 2-thio-3,4-dihydroquinazoline derivatives as novel T-type calcium channel blockers” (Bioorg Med Chem, 2020).
Activity calls are given as the source filed them. The calls are words filed in the database; no cut-off is given here.

Assays:
[1] = target: T1, Voltage-dependent T-type calcium channel subunit alpha-1I (Homo sapiens, UniProt Q9P0X4); experiment: Inhibition of human Cav3.3 expressed in tsA-201 cells at 10uM by patch clamp electrophysiology; format: cell-based
T1 sequence (Q9P0X4 whole entry): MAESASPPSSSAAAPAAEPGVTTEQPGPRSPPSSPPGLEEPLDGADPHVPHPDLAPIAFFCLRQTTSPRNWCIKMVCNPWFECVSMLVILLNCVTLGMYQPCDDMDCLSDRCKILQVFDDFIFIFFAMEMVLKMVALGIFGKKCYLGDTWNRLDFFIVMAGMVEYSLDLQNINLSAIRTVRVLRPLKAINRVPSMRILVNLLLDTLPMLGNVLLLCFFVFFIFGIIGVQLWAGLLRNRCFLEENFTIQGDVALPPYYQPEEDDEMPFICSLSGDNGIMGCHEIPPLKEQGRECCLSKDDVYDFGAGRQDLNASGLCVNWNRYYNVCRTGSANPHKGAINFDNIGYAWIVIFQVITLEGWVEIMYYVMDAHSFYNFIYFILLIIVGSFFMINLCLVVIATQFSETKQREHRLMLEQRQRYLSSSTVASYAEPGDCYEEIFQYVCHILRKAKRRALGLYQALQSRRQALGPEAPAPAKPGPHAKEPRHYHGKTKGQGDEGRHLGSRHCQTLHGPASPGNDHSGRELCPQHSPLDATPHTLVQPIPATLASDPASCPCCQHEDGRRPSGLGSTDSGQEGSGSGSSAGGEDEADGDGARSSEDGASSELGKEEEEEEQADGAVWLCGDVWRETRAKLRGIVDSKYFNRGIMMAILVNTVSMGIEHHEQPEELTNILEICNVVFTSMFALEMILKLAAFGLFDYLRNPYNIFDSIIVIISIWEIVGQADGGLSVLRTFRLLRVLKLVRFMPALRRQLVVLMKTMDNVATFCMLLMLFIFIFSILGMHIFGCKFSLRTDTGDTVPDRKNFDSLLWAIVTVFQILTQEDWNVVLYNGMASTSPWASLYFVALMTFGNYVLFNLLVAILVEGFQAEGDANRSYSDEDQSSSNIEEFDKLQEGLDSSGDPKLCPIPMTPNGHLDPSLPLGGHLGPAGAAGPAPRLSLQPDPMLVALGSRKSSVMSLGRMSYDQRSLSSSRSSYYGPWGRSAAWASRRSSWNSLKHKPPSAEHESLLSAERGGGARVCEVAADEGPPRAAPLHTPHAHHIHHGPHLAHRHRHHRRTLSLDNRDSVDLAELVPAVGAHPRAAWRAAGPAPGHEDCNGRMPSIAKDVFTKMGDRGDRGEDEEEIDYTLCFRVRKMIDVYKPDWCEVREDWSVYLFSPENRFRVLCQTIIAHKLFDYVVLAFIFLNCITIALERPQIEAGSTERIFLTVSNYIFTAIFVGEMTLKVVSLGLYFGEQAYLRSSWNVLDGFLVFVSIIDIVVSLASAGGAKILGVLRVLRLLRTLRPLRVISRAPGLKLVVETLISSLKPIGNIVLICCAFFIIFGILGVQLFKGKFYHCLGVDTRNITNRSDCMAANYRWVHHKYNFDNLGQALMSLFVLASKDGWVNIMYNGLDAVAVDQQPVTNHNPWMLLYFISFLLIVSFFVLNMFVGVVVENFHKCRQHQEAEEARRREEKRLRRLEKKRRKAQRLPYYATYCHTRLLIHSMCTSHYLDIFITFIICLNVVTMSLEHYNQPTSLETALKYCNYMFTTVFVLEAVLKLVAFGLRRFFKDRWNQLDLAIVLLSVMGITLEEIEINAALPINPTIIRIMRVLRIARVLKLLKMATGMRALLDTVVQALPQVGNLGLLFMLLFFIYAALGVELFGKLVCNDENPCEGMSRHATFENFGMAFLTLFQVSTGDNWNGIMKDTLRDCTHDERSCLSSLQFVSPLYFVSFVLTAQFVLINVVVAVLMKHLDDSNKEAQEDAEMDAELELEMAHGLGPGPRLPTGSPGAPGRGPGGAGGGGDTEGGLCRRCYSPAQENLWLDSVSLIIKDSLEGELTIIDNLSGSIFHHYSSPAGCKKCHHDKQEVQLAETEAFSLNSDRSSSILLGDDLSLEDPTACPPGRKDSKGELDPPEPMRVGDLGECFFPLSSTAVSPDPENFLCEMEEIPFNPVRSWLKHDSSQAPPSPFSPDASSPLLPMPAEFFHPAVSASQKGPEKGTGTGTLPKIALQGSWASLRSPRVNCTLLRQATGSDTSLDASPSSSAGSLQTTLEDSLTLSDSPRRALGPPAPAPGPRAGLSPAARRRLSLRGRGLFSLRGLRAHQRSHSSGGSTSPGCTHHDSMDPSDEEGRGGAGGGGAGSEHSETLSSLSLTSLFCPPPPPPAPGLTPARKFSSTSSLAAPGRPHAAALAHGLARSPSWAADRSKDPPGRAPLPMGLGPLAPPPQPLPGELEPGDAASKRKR

[2] = target: T1, Voltage-dependent T-type calcium channel subunit alpha-1I; experiment: Inhibition of human Cav3.3 expressed in tsA-201 cells by patch clamp electrophysiology; format: cell-based
[3] = target: T2, Voltage-dependent T-type calcium channel subunit alpha-1H (Homo sapiens, UniProt O95180); experiment: Inhibition of human Cav3.2 expressed in tsA-201 cells at 10uM by patch clamp electrophysiology; format: cell-based
T2 sequence (O95180 whole entry): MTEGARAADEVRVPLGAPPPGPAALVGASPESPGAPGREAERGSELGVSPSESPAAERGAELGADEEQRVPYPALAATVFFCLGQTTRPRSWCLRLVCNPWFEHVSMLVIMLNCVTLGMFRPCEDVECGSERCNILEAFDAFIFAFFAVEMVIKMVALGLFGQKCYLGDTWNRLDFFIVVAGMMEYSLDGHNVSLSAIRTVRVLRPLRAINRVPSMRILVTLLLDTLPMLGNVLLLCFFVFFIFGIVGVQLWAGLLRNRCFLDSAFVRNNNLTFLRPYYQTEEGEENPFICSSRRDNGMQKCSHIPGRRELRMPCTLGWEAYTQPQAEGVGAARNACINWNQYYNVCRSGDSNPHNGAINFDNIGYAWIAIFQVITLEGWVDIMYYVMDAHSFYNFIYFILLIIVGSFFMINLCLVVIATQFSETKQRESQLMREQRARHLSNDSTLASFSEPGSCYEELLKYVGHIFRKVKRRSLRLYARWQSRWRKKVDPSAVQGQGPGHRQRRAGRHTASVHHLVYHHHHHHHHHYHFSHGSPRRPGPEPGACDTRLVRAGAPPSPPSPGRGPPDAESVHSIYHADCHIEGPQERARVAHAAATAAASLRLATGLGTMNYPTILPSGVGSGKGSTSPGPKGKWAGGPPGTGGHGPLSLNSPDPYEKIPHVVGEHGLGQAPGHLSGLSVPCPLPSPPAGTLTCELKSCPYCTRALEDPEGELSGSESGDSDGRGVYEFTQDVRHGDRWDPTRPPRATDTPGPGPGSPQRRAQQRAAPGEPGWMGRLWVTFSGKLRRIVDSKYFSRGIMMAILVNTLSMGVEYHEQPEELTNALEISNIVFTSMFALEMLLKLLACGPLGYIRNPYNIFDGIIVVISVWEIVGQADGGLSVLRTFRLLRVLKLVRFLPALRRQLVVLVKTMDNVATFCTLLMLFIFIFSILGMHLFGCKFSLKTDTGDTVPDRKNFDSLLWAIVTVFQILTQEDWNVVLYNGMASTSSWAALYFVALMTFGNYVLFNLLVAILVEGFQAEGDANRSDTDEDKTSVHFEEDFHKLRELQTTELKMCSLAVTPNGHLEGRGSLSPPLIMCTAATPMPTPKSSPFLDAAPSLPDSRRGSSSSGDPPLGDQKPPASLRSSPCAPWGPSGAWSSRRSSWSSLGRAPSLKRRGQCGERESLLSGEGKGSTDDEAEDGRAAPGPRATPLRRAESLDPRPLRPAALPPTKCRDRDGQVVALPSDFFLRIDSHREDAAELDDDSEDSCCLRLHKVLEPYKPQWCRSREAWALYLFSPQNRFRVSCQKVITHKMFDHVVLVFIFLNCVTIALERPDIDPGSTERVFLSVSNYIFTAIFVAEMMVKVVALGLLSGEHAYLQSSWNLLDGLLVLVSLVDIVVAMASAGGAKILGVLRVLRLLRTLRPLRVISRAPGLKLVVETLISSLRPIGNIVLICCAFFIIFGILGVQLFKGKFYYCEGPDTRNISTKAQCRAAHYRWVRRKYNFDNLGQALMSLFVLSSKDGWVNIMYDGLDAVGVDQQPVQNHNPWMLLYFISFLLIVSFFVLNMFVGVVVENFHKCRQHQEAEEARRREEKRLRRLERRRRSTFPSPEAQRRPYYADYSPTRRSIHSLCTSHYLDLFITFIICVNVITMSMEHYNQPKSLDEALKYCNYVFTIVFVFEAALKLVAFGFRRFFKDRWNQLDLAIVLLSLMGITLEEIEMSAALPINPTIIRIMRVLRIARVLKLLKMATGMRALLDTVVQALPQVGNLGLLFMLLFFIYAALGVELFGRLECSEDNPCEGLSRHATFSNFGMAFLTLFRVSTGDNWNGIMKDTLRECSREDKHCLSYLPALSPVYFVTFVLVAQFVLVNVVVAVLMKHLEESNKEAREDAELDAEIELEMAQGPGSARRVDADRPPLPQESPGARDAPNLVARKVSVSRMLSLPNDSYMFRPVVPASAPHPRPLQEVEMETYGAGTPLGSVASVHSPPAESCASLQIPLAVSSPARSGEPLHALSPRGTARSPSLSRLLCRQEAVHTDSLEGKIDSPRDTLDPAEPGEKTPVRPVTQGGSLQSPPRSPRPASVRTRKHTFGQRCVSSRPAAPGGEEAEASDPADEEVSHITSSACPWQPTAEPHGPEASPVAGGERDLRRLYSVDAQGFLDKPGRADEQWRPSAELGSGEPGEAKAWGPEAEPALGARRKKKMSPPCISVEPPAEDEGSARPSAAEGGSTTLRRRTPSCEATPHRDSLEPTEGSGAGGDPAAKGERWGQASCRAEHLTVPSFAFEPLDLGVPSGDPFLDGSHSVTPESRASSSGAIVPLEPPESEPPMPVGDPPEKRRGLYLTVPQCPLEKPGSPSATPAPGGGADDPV

[4] = target: T2, Voltage-dependent T-type calcium channel subunit alpha-1H; experiment: Inhibition of human Cav3.2 expressed in tsA-201 cells by patch clamp electrophysiology; format: cell-based
[5] = target: T3, Voltage-dependent T-type calcium channel subunit alpha-1G (Homo sapiens, UniProt O43497); experiment: Inhibition of human Cav3.1 expressed in tsA-201 cells by patch clamp electrophysiology; format: cell-based
[6] = system: HCT-116; experiment: Cytotoxicity against human HCT116 cells assessed as reduction in cell viability after 48 hrs by MTT assay; format: functional, cell-based; conditions: HCT-116, 48 h
[7] = system: A549; experiment: Cytotoxicity against human A549 cells assessed as reduction in cell viability after 48 hrs by MTT assay; format: functional, cell-based; conditions: A549, 48 h
[8] = target: T3, Voltage-dependent T-type calcium channel subunit alpha-1G; experiment: Inhibition of human Cav3.1 expressed in tsA-201 cells at 10uM by patch clamp electrophysiology; format: cell-based

Row | Compound | inhibition [1] | IC50 ([2]; read-out: IC50) [µM] | inhibition [3] [%] | IC50 [4] [µM] | IC50 [5] [µM] | IC50 [6] [µM] | IC50 [7] [µM] | inhibition [8] [%] | IC50 [2]
1 | CN(C)CCCCCSC1=Nc2ccccc2C(CC(=O)NCc2ccccc2)N1c1ccccc1 (stereo unspecified) | 76% | 3.2 | 51.8 | 13.8 | 18.5 | 38.8 | 138 | 46.5 | 
2 | CN(C)CCCCCSC1=Nc2ccccc2C(CC(=O)NCc2ccc(F)cc2)N1c1ccccc1 (stereo unspecified) | inactive |  | 7 | 832 |  | 38.8 | 36.8 | 26.7 | Not Active
3 | O=C(CC1c2ccccc2N=C(SCCCCCN2CCCC2)N1c1ccccc1)NCc1ccc(F)cc1 (stereo unspecified) | 22.1% |  | 40 | 57.4 | 13.5 | 27.1 | 89.9 | 60.1 | 
4 | O=C(CC1c2ccccc2N=C(SCCCCCN2CCCC2)N1c1ccc(-c2ccccc2)cc1)NCc1ccccc1 (stereo unspecified) | 92.7% | 0.81 | 73.1 | 6.9 | 0.66 | 5.5 | 14.9 | 93.9 | 
5 | O=C(CC1c2ccccc2N=C(SCCCCCN2CCCC2)N1c1ccc(-c2ccc(F)cc2)cc1)NCc1ccccc1 (stereo unspecified) | 68.2% | 5.1 | 97.5 | 0.26 | 2.18 | 12.5 | 17.8 | 83.9 | 
6 | O=C(CC1c2ccccc2N=C(SCCCCCN2CCCC2)N1c1ccccc1)NCc1ccccc1 (stereo unspecified) | 78.3% | 6.19 | 61.6 | 7.71 | 77 | 31.3 | 98.1 | 60.4 | 
7 | CN(C)CCCCCN(C)C1=Nc2ccccc2C(CC(=O)NCc2ccccc2)N1c1ccc(-c2ccccc2)cc1 (stereo unspecified) |  |  | 89.3 |  |  | 5.6 |  |  | 
8 | CN(C)CCCCCSC1=Nc2ccccc2C(CC(=O)NCc2ccccc2)N1c1ccc(-c2ccc(F)cc2)cc1 (stereo unspecified) | 66.7% | 9.06 | 75.6 | 4.18 | 0.25 | 9.2 | 17.6 | 97.6 | 
9 | CN(C)CCCCCSC1=Nc2ccccc2C(CC(=O)NCc2ccc(F)cc2)N1c1ccc(-c2ccc(F)cc2)cc1 (stereo unspecified) | 92% | 0.96 | 84.8 | 2.76 | 0.4 | 9.3 | 11.3 | 96.2 | 
10 | CN(C)CCCCCSC1=Nc2ccccc2C(CC(=O)NCc2ccccc2)N1c1ccc(-c2ccccc2)cc1 (stereo unspecified) | 85.6% | 1.76 | 83.9 | 2.4 | 7.77 | 9.6 | 18.1 | 76.2 | 
11 | O=C(CC1c2ccccc2N=C(SCCCCCN2CCCC2)N1c1ccc(-c2ccccc2)cc1)NCc1ccc(F)cc1 (stereo unspecified) | 55.9% | 13.6 | 69 | 276 | 15 | 6.2 | 19.8 | 51.5 | 
12 | O=C(CC1c2ccccc2N=C(SCCCCCN2CCCC2)N1c1ccc(-c2ccc(F)cc2)cc1)NCc1ccc(F)cc1 (stereo unspecified) | 35.1% | 19.8 | 76.6 | 4.88 | 12.6 | 7.7 | 12.6 | 83.9 | 
13 | CN(C)CCCCCSC1=Nc2ccccc2C(CC(=O)NCc2ccc(F)cc2)N1c1ccc(-c2ccccc2)cc1 (stereo unspecified) | 69.3% | 6.1 | 83.1 | 3.14 | 27.4 | 6.4 | 5 | 31 | 
